{"source": "patent EP0083683A1", "about": "“Method of preparing 1,4-bis(substituted-amino)-5,8-dihydroxyanthraquinones and pharmaceutical compositions containing them” (AMERICAN CYANAMID COMPANY, priority 1981, dated 1983)", "key": {"[1]": {"system": "lymphocytic leukemia P388", "assay": "Lymphocytic leukemia P388 test", "format": "in vivo, DBA/2 mice", "description": "The animals used are DBA/2 mice all of one sex, weighing a minimum of 17 g. and all within a 3 g. weight range. There are 5 or 6 animals per test group. The tumor transplant is by intraperitoneal injection of 0.5 ml. of dilute ascitic fluid containing 10^6 cells of lymphocytic leukemia P388. The test compounds are administered intraperitoneally on days one, 5 and 9 (relative to tumor inoculation) at various doses. […] The median survival time and the ratio of survival time for treated (T)/control (C) animals are calculated. The positive control compound is 5-fluorouracil given as a 60 mg./kg. injection. The results of this test with representative compounds of the present invention appear in Table I. The criterion for efficacy is T/C x 100>125%."}, "melanotic melanoma B16": {"system": "melanotic melanoma B16", "assay": "Melanotic Melanoma B16 test", "format": "in vivo, BDF1 mice", "description": "The animals used are BDF1 mice, all of the same sex, weighing a minimum of 17 g. and all within a 3 g. weight range. There are normally 10 animals per test group. A one-gram portion of melanotic melanoma B16 tumor is homogenized in 10 ml. of cold balanced salt solution and a 0.5 ml. aliquot of the homogenate is implanted intraperitoneally into each of the test mice. The test compounds are administered intraperitoneally on days one through 9 (relative to tumor inoculation) at various doses. The animals are weighed and survivors are recorded on a regular basis for 60 days. The median survival time and the ratio of survival time for treated (T)/control (C) animals are calculated. The positive control compound is 5-fluorouracil given as a 20 mg./kg. injection. The criterion for efficacy is T/C x 100 >125%."}, "[2]": {"conditions": "1st test, positive control, dose 60 mg./kg."}, "[3]": {"conditions": "2nd test, positive control, dose 60 mg./kg."}, "[4]": {"conditions": "positive control, dose 20.0 mg./kg."}, "[5]": {"conditions": "1st test, dose 0.78 mg./kg. intraperitoneally on days 1, 5 and 9"}, "[6]": {"conditions": "1st test, dose 1.56 mg./kg. intraperitoneally on days 1, 5 and 9"}, "[7]": {"conditions": "1st test, dose 3.12 mg./kg. intraperitoneally on days 1, 5 and 9"}, "[8]": {"conditions": "1st test, dose 6.25 mg./kg. intraperitoneally on days 1, 5 and 9"}, "[9]": {"conditions": "2nd test, dose 0.10 mg./kg. intraperitoneally on days 1, 5 and 9"}, "[10]": {"conditions": "2nd test, dose 0.19 mg./kg. intraperitoneally on days 1, 5 and 9"}, "[11]": {"conditions": "2nd test, dose 0.39 mg./kg. intraperitoneally on days 1, 5 and 9"}, "[12]": {"conditions": "2nd test, dose 0.78 mg./kg. intraperitoneally on days 1, 5 and 9"}, "[13]": {"conditions": "2nd test, dose 1.56 mg./kg. intraperitoneally on days 1, 5 and 9"}, "[14]": {"conditions": "2nd test, dose 3.12 mg./kg. intraperitoneally on days 1, 5 and 9"}, "[15]": {"conditions": "2nd test, dose 6.25 mg./kg. intraperitoneally on days 1, 5 and 9"}, "[16]": {"conditions": "dose 0.09 mg./kg. intraperitoneally on days one through 9"}, "[17]": {"conditions": "dose 0.19 mg./kg. intraperitoneally on days one through 9"}, "[18]": {"conditions": "dose 0.37 mg./kg. intraperitoneally on days one through 9"}, "[19]": {"conditions": "dose 0.75 mg./kg. intraperitoneally on days one through 9"}, "[20]": {"conditions": "dose 1.5 mg./kg. intraperitoneally on days one through 9"}}}
{"smiles": "O=c1[nH]cc(F)c(=O)[nH]1", "note": "[5-Fluorouracil, 5-fluorouracil, reference compound]", "values": [{"measurement": "Median Survival Time", "setting": "[1]; [2]", "value": 21.0, "unit": "days"}, {"measurement": "T/C x 100 (Percent)", "setting": "[1]; [2]", "value": 191, "unit": "%"}, {"measurement": "Median Survival Time", "setting": "[1]; [3]", "value": 21.5, "unit": "days"}, {"measurement": "T/C x 100 (Percent)", "setting": "[1]; [3]", "value": 195, "unit": "%"}, {"measurement": "Median Survival Time", "setting": "melanotic melanoma B16; [4]", "value": 26.0, "unit": "days"}, {"measurement": "T/C x 100 (Percent)", "setting": "melanotic melanoma B16; [4]", "value": 137, "unit": "%"}]}
{"smiles": "O=C1c2c(O)ccc(O)c2C(=O)c2c(NCCN3CCOC3)ccc(NCCN3CCOC3)c21", "note": "[l,4-Dihydroxy-5,8-bis[[2-(3-oxazolidinyl)ethyl]amino]-anthraquinone]", "values": [{"measurement": "Median Survival Time", "setting": "[1]; [5]", "value": 23.0, "unit": "days"}, {"measurement": "T/C x 100 (Percent)", "setting": "[1]; [5]", "value": 209, "unit": "%"}, {"measurement": "Median Survival Time", "setting": "[1]; [6]", "value": 23.5, "unit": "days"}, {"measurement": "T/C x 100 (Percent)", "setting": "[1]; [6]", "value": 214, "unit": "%"}, {"measurement": "\"Cures\" = number of survivors/total at 60 days", "setting": "[1]; [7]", "value": "1/6"}, {"measurement": "Median Survival Time", "setting": "[1]; [7]", "value": 29.5, "unit": "days"}, {"measurement": "T/C x 100 (Percent)", "setting": "[1]; [7]", "value": 268, "unit": "%"}, {"measurement": "\"Cures\" = number of survivors/total at 60 days", "setting": "[1]; [8]", "value": "2/6"}, {"measurement": "Median Survival Time", "setting": "[1]; [8]", "value": ">30.0", "unit": "days"}, {"measurement": "T/C x 100 (Percent)", "setting": "[1]; [8]", "value": ">273", "unit": "%"}, {"measurement": "Median Survival Time", "setting": "[1]; [9]", "value": 19.5, "unit": "days"}, {"measurement": "T/C x 100 (Percent)", "setting": "[1]; [9]", "value": 177, "unit": "%"}, {"measurement": "Median Survival Time", "setting": "[1]; [10]", "value": 23.5, "unit": "days"}, {"measurement": "T/C x 100 (Percent)", "setting": "[1]; [10]", "value": 214, "unit": "%"}, {"measurement": "Median Survival Time", "setting": "[1]; [11]", "value": 23.5, "unit": "days"}, {"measurement": "T/C x 100 (Percent)", "setting": "[1]; [11]", "value": 214, "unit": "%"}, {"measurement": "Median Survival Time", "setting": "[1]; [12]", "value": 22.0, "unit": "days"}, {"measurement": "T/C x 100 (Percent)", "setting": "[1]; [12]", "value": 200, "unit": "%"}, {"measurement": "\"Cures\" = number of survivors/total at 60 days", "setting": "[1]; [13]", "value": "1/6"}, {"measurement": "Median Survival Time", "setting": "[1]; [13]", "value": 30.0, "unit": "days"}, {"measurement": "T/C x 100 (Percent)", "setting": "[1]; [13]", "value": 273, "unit": "%"}, {"measurement": "Median Survival Time", "setting": "[1]; [14]", "value": ">30.0", "unit": "days"}, {"measurement": "T/C x 100 (Percent)", "setting": "[1]; [14]", "value": ">273", "unit": "%"}, {"measurement": "Median Survival Time", "setting": "[1]; [15]", "value": 14.0, "unit": "days"}, {"measurement": "T/C x 100 (Percent)", "setting": "[1]; [15]", "value": 127, "unit": "%"}, {"measurement": "Median Survival Time", "setting": "melanotic melanoma B16; [16]", "value": 29.0, "unit": "days"}, {"measurement": "T/C x 100 (Percent)", "setting": "melanotic melanoma B16; [16]", "value": 153, "unit": "%"}, {"measurement": "Median Survival Time", "setting": "melanotic melanoma B16; [17]", "value": 31.0, "unit": "days"}, {"measurement": "T/C x 100 (Percent)", "setting": "melanotic melanoma B16; [17]", "value": 163, "unit": "%"}, {"measurement": "Median Survival Time", "setting": "melanotic melanoma B16; [18]", "value": 49.5, "unit": "days"}, {"measurement": "T/C x 100 (Percent)", "setting": "melanotic melanoma B16; [18]", "value": 260, "unit": "%"}, {"measurement": "Median Survival Time", "setting": "melanotic melanoma B16; [19]", "value": 46.0, "unit": "days"}, {"measurement": "T/C x 100 (Percent)", "setting": "melanotic melanoma B16; [19]", "value": 242, "unit": "%"}, {"measurement": "Median Survival Time", "setting": "melanotic melanoma B16; [20]", "value": 55.5, "unit": "days"}, {"measurement": "T/C x 100 (Percent)", "setting": "melanotic melanoma B16; [20]", "value": 292, "unit": "%"}]}
